{"source": "patent US12281122B1", "about": "“PI3K inhibitors” (Cogent Biosciences, Inc., priority 2023, dated 2025)", "key": {"[1]": {"tested_on": "T47D (PI3Kα-H1047R) cell line", "assay": "HTRF phospho-AKT(S473) cell assay in T47D cells", "format": "cell-based, human", "conditions": "Homo sapiens, 2 hours compound incubation", "outline": "(§1)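 pAKT(S473) in lysates read by HTRF after a 2 h, 37 °C compound exposure (12-point 1:3 series, max 0.5% DMSO). SKBR3 (wild type, top 10 μM) received 70 ng/ml PDGF-BB during the final 15 min; T47D (H1047R, top 5 μM) was unstimulated. IC50 values derived from the dose-response.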"}, "[2]": {"tested_on": "SKBR3 (PI3Kα-Wild Type) cell line", "assay": "HTRF phospho-AKT(S473) cell assay in SKBR3 cells", "format": "cell-based, human", "conditions": "Homo sapiens, SK-BR-3, 2 hours compound incubation, PDGF-BB stimulated", "outline": "as §1"}, "[3]": {"conditions": "HTRF phospho-AKT(S473), T47D (PI3Kα-H1047R) cells"}, "[4]": {"conditions": "HTRF phospho-AKT(S473), SKBR3 (PI3Kα-Wild Type) cells"}, "[5]": {"conditions": "T47D (PI3Kα-H1047R) cells, HTRF phospho-AKT(S473)"}, "[6]": {"conditions": "SKBR3 (PI3Kα-Wild Type) cells, HTRF phospho-AKT(S473)"}}, "data": [{"smiles": "Cc1cc([C@@H](C)Nc2ccc(Cl)nc2C(=O)NS(C)(=O)=O)c2nc(-c3ccc(-c4cnc(C)nc4)nc3)n(C)c(=O)c2c1", "note": "[Compound 854, (R)-6-chloro-3-((1-(3,6-dimethyl-2-(6-(2-methylpyrimidin-5-yl)pyridin-3-yl)-4-oxo-3,4-dihydroquinazolin-8-yl)ethyl)amino)-N-(methylsulfonyl) picolinamide]", "values": [{"measurement": "IC50", "setting": "[1]; T47D (PI3Kα-H1047R) cell line, phospho-AKT(S473) HTRF", "value": "< 250", "unit": "nM"}, {"measurement": "IC50", "setting": "[2]; SKBR3 (PI3Kα-Wild Type) cell line, phospho-AKT(S473) HTRF", "value": "1000 to 5000", "unit": "nM"}]}, {"smiles": "Cc1cc([C@@H](C)Nc2ccc(Cl)nc2C(=O)NS(C)(=O)=O)c2nc(N3C[C@@H]4C(c5cnc(C(F)F)nc5)[C@@H]4C3)n(C)c(=O)c2c1", "note": "(stereo partly drawn) [Compound 536, 6-chloro-3-(((1R)-1-(2-((1R,5S)-6-(2-(difluoromethyl)pyrimidin-5-yl)-3-azabicyclo[3.1.0]hexan-3-yl)-3,6-dimethyl-4-oxo-3,4-dihydroquinazolin-8-yl)ethyl)amino)-N-(methylsulfonyl) picolinamide]", "values": [{"measurement": "IC50", "setting": "[1]; [3]", "value": "< 250", "unit": "nM"}, {"measurement": "IC50", "setting": "[2]; [4]", "value": "1000 to 5000", "unit": "nM"}]}, {"smiles": "COc1ccccc1-n1cc2c(n1)CN(c1nc3c([C@@H](C)Nc4ccc(Cl)nc4C(=O)NS(C)(=O)=O)cc(C)cc3c(=O)n1C)C2", "note": "[Compound 705, (R)-6-chloro-3-((1-(2-(2-(2-methoxyphenyl)-2,6-dihydropyrrolo[3,4-c]pyrazol-5(4H)-yl)-3,6-dimethyl-4-oxo-3,4-dihydroquinazolin-8-yl)ethyl)amino)-N-(methylsulfonyl) picolinamide]", "values": [{"measurement": "IC50", "setting": "[1]; [3]", "value": "250 to 500", "unit": "nM"}, {"measurement": "IC50", "setting": "[2]; [4]", "value": "≥ 5000", "unit": "nM"}]}, {"smiles": "Cc1cc([C@@H](C)Nc2ccc(Cl)nc2C(=O)NS(C)(=O)=O)c2nc(N3C[C@@H]4[C@H](C3)[C@H]4c3cnc(C)c(F)c3)n(C)c(=O)c2c1", "note": "[Compound 423, 6-chloro-3-(((R)-1-(2-((1R,5S,6S)-6-(5-fluoro-6-methylpyridin-3-yl)-3-azabicyclo[3.1.0]hexan-3-yl)-3,6-dimethyl-4-oxo-3,4-dihydroquinazolin-8-yl)ethyl)amino)-N-(methylsulfonyl) picolinamide]", "values": [{"measurement": "IC50", "setting": "[1]; [5]", "value": "250 to 500", "unit": "nM"}, {"measurement": "IC50", "setting": "[2]; [6]", "value": "≥ 5000", "unit": "nM"}]}, {"smiles": "COCCn1ncc(F)c1C1CCN(c2nc3c([C@@H](C)Nc4ccc(Cl)nc4C(=O)NS(C)(=O)=O)cc(C)cc3c(=O)n2C)CC1", "note": "[Compound 472, (R)-6-chloro-3-((1-(2-(4-(4-fluoro-1-(2-methoxyethyl)-1H-pyrazol-5-yl)piperidin-1-yl)-3,6-dimethyl-4-oxo-3,4-dihydroquinazolin-8-yl)ethyl)amino)-N-(methylsulfonyl) picolinamide]", "values": [{"measurement": "IC50", "setting": "[1]; [3]", "value": "< 250", "unit": "nM"}, {"measurement": "IC50", "setting": "[2]; [4]", "value": "≥ 5000", "unit": "nM"}]}, {"smiles": "Cc1cc([C@@H](C)Nc2ccc(Cl)nc2C(=O)NS(C)(=O)=O)c2nc(-c3ccc4nn(C)nc4c3)n(C)c(=O)c2c1", "note": "[Compound 781, (R)-6-chloro-3-((1-(3,6-dimethyl-2-(2-methyl-2H-benzo[d][1,2,3]triazol-5-yl)-4-oxo-3,4-dihydroquinazolin-8-yl)ethyl)amino)-N-(methylsulfonyl) picolinamide]", "values": [{"measurement": "IC50", "setting": "[1]; [3]", "value": "< 250", "unit": "nM"}, {"measurement": "IC50", "setting": "[2]; [4]", "value": "1000 to 5000", "unit": "nM"}]}, {"smiles": "Cc1cc([C@@H](C)Nc2ccc(Cl)nc2C(=O)NS(C)(=O)=O)c2nc(N3Cc4cnc(C)nc4C3)n(C)c(=O)c2c1", "note": "[Compound 612, (R)-6-chloro-3-((1-(3,6-dimethyl-2-(2-methyl-5,7-dihydro-6H-pyrrolo[3,4-d]pyrimidin-6-yl)-4-oxo-3,4-dihydroquinazolin-8-yl)ethyl)amino)-N-(methylsulfonyl) picolinamide]", "values": [{"measurement": "IC50", "setting": "[1]; [3]", "value": "250 to 500", "unit": "nM"}, {"measurement": "IC50", "setting": "[2]; [4]", "value": "1000 to 5000", "unit": "nM"}]}, {"smiles": "Cc1cc([C@@H](C)Nc2ccc(Cl)nc2C(=O)NS(C)(=O)=O)c2nc(N3C[C@@H]4[C@H](C3)[C@H]4c3cn(C)nc3C)n(C)c(=O)c2c1", "note": "[Compound 430, 6-chloro-3-(((R)-1-(2-((1R,5S,6S)-6-(1,3-dimethyl-1H-pyrazol-4-yl)-3-azabicyclo[3.1.0]hexan-3-yl)-3,6-dimethyl-4-oxo-3,4-dihydroquinazolin-8-yl)ethyl)amino)-N-(methylsulfonyl) picolinamide]", "values": [{"measurement": "IC50", "setting": "[1]; [5]", "value": "< 250", "unit": "nM"}, {"measurement": "IC50", "setting": "[2]; [6]", "value": "1000 to 5000", "unit": "nM"}]}, {"smiles": "COc1cc([C@H]2[C@@H]3CN(c4nc5c([C@@H](C)Nc6ccc(Cl)nc6C(=O)NS(C)(=O)=O)cc(C)cc5c(=O)n4C)C[C@@H]32)ccn1", "note": "[Compound 474, 6-chloro-3-(((R)-1-(2-((1R,5S,6S)-6-(2-methoxypyridin-4-yl)-3-azabicyclo[3.1.0]hexan-3-yl)-3,6-dimethyl-4-oxo-3,4-dihydroquinazolin-8-yl)ethyl)amino)-N-(methylsulfonyl) picolinamide]", "values": [{"measurement": "IC50", "setting": "[1]; [3]", "value": "250 to 500", "unit": "nM"}, {"measurement": "IC50", "setting": "[2]; [4]", "value": "≥ 5000", "unit": "nM"}]}, {"smiles": "Cc1cc([C@@H](C)Nc2ccc(Cl)nc2C(=O)NS(C)(=O)=O)c2nc(N3Cc4cccc(-c5cncn5C)c4C3)n(C)c(=O)c2c1", "note": "[Compound 674, (R)-6-chloro-3-((1-(3,6-dimethyl-2-(4-(1-methyl-1H-imidazol-5-yl)isoindolin-2-yl)-4-oxo-3,4-dihydroquinazolin-8-yl)ethyl)amino)-N-(methylsulfonyl) picolinamide]", "values": [{"measurement": "IC50", "setting": "[1]; [3]", "value": "250 to 500", "unit": "nM"}, {"measurement": "IC50", "setting": "[2]; [4]", "value": "≥ 5000", "unit": "nM"}]}, {"smiles": "Cc1cc([C@@H](C)Nc2ccc(Cl)nc2C(=O)NS(C)(=O)=O)c2nc(N3CCN4C[C@H](n5cc(C)cn5)C[C@H]4C3)n(C)c(=O)c2c1", "note": "[Compound 680, 6-chloro-3-(((R)-1-(3,6-dimethyl-2-((7R,8aS)-7-(4-methyl-1H-pyrazol-1-yl)hexahydropyrrolo[1,2-a]pyrazin-2(1H)-yl)-4-oxo-3,4-dihydroquinazolin-8-yl)ethyl)amino)-N-(methylsulfonyl) picolinamide]", "values": [{"measurement": "IC50", "setting": "[1]; [3]", "value": "250 to 500", "unit": "nM"}, {"measurement": "IC50", "setting": "[2]; [4]", "value": "≥ 5000", "unit": "nM"}]}, {"smiles": "Cc1cc([C@@H](C)Nc2ccc(Cl)nc2C(=O)NS(C)(=O)=O)c2nc(N3C[C@H]4C[C@@H](c5ccn(C)n5)[C@@H]3C4)n(C)c(=O)c2c1", "note": "[Compound 315, 6-chloro-3-(((R)-1-(3,6-dimethyl-2-((1S,4S,6R)-6-(1-methyl-1H-pyrazol-3-yl)-2-azabicyclo[2.2.1]heptan-2-yl)-4-oxo-3,4-dihydroquinazolin-8-yl)ethyl)amino)-N-(methylsulfonyl) picolinamide]", "values": [{"measurement": "IC50", "setting": "[1]; [5]", "value": "< 250", "unit": "nM"}, {"measurement": "IC50", "setting": "[2]; [6]", "value": "≥ 5000", "unit": "nM"}]}, {"smiles": "Cc1cc([C@@H](C)Nc2ccc(Cl)nc2C(=O)NS(C)(=O)=O)c2nc(N3CCN(c4ncc(C#N)cc4C)CC3)n(C)c(=O)c2c1", "note": "[Compound 184, (R)-6-chloro-3-((1-(2-(4-(5-cyano-3-methylpyridin-2-yl)piperazin-1-yl)-3,6-dimethyl-4-oxo-3,4-dihydroquinazolin-8-yl)ethyl)amino)-N-(methylsulfonyl) picolinamide]", "values": [{"measurement": "IC50", "setting": "[1]; [5]", "value": "< 250", "unit": "nM"}, {"measurement": "IC50", "setting": "[2]; [6]", "value": "1000 to 5000", "unit": "nM"}]}, {"smiles": "Cc1cc([C@@H](C)Nc2ccc(Cl)nc2C(=O)NS(C)(=O)=O)c2nc(N3CCC(n4cc(-c5cnc(C)cn5)cn4)CC3)n(C)c(=O)c2c1", "note": "[Compound 270, (R)-6-chloro-3-((1-(3,6-dimethyl-2-(4-(4-(5-methylpyrazin-2-yl)-1H-pyrazol-1-yl)piperidin-1-yl)-4-oxo-3,4-dihydroquinazolin-8-yl)ethyl)amino)-N-(methylsulfonyl) picolinamide]", "values": [{"measurement": "IC50", "setting": "[1]; [5]", "value": "< 250", "unit": "nM"}, {"measurement": "IC50", "setting": "[2]; [6]", "value": "≥ 5000", "unit": "nM"}]}, {"smiles": "CCn1c(N2CCC(n3cc(C)cn3)CC2)nc2c([C@@H](C)Nc3ccc(Cl)nc3C(=O)NS(C)(=O)=O)cc(C)cc2c1=O", "note": "[Compound 526, (R)-6-chloro-3-((1-(3-ethyl-6-methyl-2-(4-(4-methyl-1H-pyrazol-1-yl)piperidin-1-yl)-4-oxo-3,4-dihydroquinazolin-8-yl)ethyl)amino)-N-(methylsulfonyl) picolinamide]", "values": [{"measurement": "IC50", "setting": "[1]; [3]", "value": "< 250", "unit": "nM"}, {"measurement": "IC50", "setting": "[2]; [4]", "value": "1000 to 5000", "unit": "nM"}]}, {"smiles": "Cc1cc([C@@H](C)Nc2ccc(Cl)nc2C(=O)NS(C)(=O)=O)c2nc(N3CCC(c4ccnn4C(F)F)CC3)n(C)c(=O)c2c1", "note": "[Compound 414, (R)-6-chloro-3-((1-(2-(4-(1-(difluoromethyl)-1H-pyrazol-5-yl)piperidin-1-yl)-3,6-dimethyl-4-oxo-3,4-dihydroquinazolin-8-yl)ethyl)amino)-N-(methylsulfonyl) picolinamide]", "values": [{"measurement": "IC50", "setting": "[1]; [5]", "value": "< 250", "unit": "nM"}, {"measurement": "IC50", "setting": "[2]; [6]", "value": "1000 to 5000", "unit": "nM"}]}, {"smiles": "[2H]C([2H])([2H])n1nccc1[C@H]1[C@@H]2CN(c3nc4c([C@@H](C)Nc5ccc(Cl)nc5C(=O)NS(C)(=O)=O)cc(C)cc4c(=O)n3C)C[C@@H]21", "note": "[Compound 494, 6-chloro-3-(((R)-1-(3,6-dimethyl-2-((1R,5S,6R)-6-(1-(methyl-d3)-1H-pyrazol-5-yl)-3-azabicyclo[3.1.0]hexan-3-yl)-4-oxo-3,4-dihydroquinazolin-8-yl)ethyl)amino)-N-(methylsulfonyl) picolinamide]", "values": [{"measurement": "IC50", "setting": "[1]; [3]", "value": "< 250", "unit": "nM"}, {"measurement": "IC50", "setting": "[2]; [4]", "value": "1000 to 5000", "unit": "nM"}]}, {"smiles": "Cc1cc([C@@H](C)Nc2ccc(Cl)nc2C(=O)NS(C)(=O)=O)c2nc(N3CCC(c4ccn(-c5cccnc5)n4)CC3)n(C)c(=O)c2c1", "note": "[Compound 312, (R)-6-chloro-3-((1-(3,6-dimethyl-4-oxo-2-(4-(1-(pyridin-3-yl)-1H-pyrazol-3-yl)piperidin-1-yl)-3,4-dihydroquinazolin-8-yl)ethyl)amino)-N-(methylsulfonyl) picolinamide]", "values": [{"measurement": "IC50", "setting": "[1]; [5]", "value": "< 250", "unit": "nM"}, {"measurement": "IC50", "setting": "[2]; [6]", "value": "1000 to 5000", "unit": "nM"}]}, {"smiles": "Cc1cc([C@@H](C)Nc2ccc(Cl)nc2C(=O)NS(C)(=O)=O)c2nc(N3CCC(c4nnc(C)n4C(F)F)CC3)n(C)c(=O)c2c1", "note": "[Compound 725, (R)-6-chloro-3-((1-(2-(4-(4-(difluoromethyl)-5-methyl-4H-1,2,4-triazol-3-yl)piperidin-1-yl)-3,6-dimethyl-4-oxo-3,4-dihydroquinazolin-8-yl)ethyl)amino)-N-(methylsulfonyl) picolinamide]", "values": [{"measurement": "IC50", "setting": "[1]; [3]", "value": "250 to 500", "unit": "nM"}, {"measurement": "IC50", "setting": "[2]; [4]", "value": "1000 to 5000", "unit": "nM"}]}]}
